Experiments:
D816V Kit = biological target: T1, D816V Kit (Homo sapiens, UniProt P10721, D816V); assay: Kit D816V assay at Km (Caliper electrophoretic mobility shift); type: biochemical; settings: 15 uM ATP, 25 C, 90 minutes
T1 construct: purchased Carna Bioscience 08-156
Method: In order to assess the activity of chemical compounds against the relevant kinase of interest, the Caliper LifeSciences electrophoretic mobility shift technology platform is used. Fluorescently labeled substrate peptide is incubated in the presence of kinase and ATP so that a […] proportion of the peptide is phosphorylated. At the end of the reaction, the mix of phosphorylated (product) and non-phosphorylated (substrate) peptides are passed through the microfluidic system of the Caliper EZ Reader 2, under an applied potential difference. The presence of the phosphate group on the product peptide provides a difference in mass and charge between those of the substrate peptide, resulting in a separation of the substrate and product pools in the sample. As the pools pass a LEDS within the instrument, these pools are detected and resolved as separate peaks. The ratio between these peaks therefore reflects the activity of the chemical matter at that concentration in that well, under those conditions.
The reaction was stopped by the addition of 70 ul of Stop buffer (100 mM HEPES pH 7.5, 0.015% Brij 35, 35 mM EDTA and 0.2% of Coating Reagent 3 (Caliper Lifesciences)). The plate was then read on a Caliper EZReader 2 (protocol settings: −1.9 psi, upstream voltage −700, downstream voltage −3000, post sample sip 35 s).

[1] = biological target: T2, Kit D816V (HMC1.2 cells, Kit V560G and D816V) (Homo sapiens, UniProt P10721, D816V/V560G); assay: HMC1.2 autophosphorylation assay (AlphaLISA, phospho-Y719 c-Kit); type: cell-based; settings: Kit autophosphorylation at tyrosine 719, 90 minutes, read-out: Cellular Activity
T2 construct: endogenous in cells; host or cells: HMC1.2 cells
Method: HMC1.2 Autophosphorylation Assay:
10,000 HMC1.2 cells were incubated in 22 ul culture media (phenol-red free IMDM, no serum) in each well of a 384-well plate and serum starved overnight in a tissue culture incubator (5% CO2, 37° C.). A 10-point dose concentration series of compound (25 uM-95.4 pM) were then added to the cells in a volume of 3.1 ul to each well (0.25% DMSO final concentration). After 90 minutes, 6 ul of 5× AlphaLISA Lysis Buffer (Perkin Elmer) supplemented with a protease and phosphatase inhibitor cocktail (Cell Signaling Technologies) was added to each well and shaken at 450 rpm for 15 minutes at 4° C. 10 ul of phospho-Y719 c-Kit and total c-Kit antibodies (15 nM final concentration, Cell Signaling Technologies) and 50 ug/ml AlphaLISA rabbit acceptor beads (Perkin Elmer) were added to each well and shaken at 300 rpm at room temperature for 2 hours. 10 ul of 100 ug/ml streptavidin donor beads (Perkin Elmer) were added to each well, blocked from light with aluminum adhesive and shaken at 300 rpm at room temperature for 2 hours. Fluorescence signal was obtained on Envision (Perkin Elmer) by AlphaScreen 384 well HTS protocol.
This cell line contains Kit mutated at positions V560G and D816V resulting in constitutive activation of the kinase. The following compounds were tested in an assay to measure direct inhibition of Kit D816V kinase activity by assaying Kit autophosphorylation at tyrosine 719 on the Kit protein.

T2 sequence (P10721 26-976 V560G/D816V): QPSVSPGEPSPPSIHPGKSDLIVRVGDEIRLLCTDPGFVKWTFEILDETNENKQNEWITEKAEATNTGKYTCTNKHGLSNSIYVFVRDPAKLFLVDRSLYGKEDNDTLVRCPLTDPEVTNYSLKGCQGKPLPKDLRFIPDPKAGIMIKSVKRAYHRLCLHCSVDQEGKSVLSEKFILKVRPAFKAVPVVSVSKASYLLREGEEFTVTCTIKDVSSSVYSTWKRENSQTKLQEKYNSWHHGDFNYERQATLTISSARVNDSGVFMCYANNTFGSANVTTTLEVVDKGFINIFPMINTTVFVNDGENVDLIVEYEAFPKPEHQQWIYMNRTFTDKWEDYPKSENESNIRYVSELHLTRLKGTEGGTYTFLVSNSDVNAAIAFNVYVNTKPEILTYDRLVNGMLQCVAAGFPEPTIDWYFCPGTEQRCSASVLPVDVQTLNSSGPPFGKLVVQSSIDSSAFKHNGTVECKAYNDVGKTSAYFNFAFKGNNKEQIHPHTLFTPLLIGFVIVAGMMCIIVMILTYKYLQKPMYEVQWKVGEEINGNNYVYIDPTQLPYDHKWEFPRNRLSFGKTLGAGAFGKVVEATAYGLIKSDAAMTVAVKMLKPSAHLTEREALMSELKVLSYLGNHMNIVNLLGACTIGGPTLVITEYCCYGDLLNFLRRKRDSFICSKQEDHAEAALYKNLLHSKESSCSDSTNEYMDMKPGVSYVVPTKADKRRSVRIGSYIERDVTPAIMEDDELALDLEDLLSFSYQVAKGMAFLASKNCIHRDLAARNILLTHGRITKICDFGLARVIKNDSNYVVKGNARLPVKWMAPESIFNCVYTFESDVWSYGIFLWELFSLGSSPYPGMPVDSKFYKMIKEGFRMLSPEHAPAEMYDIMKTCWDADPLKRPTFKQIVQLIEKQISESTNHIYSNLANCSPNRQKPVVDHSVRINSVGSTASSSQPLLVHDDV
T1 sequence (P10721 26-976 D816V): as the sequence (P10721 26-976 V560G/D816V) above, with G535V counted along it

Compound | IC50 (D816V Kit) [nM] | IC50 [1] [nM]
Fc1cccc(F)c1Cc1cnc(N2CCN(c3ncnc(Nc4ccc5c(c4)CNCC5)n3)CC2)nc1 [Compound 136] | 1.01 to 10 | 100 to 1000
Cc1c(Nc2ncnc(N3CCN(c4ncc(Cc5ccccc5)cn4)CC3)n2)cnn1C[C@@H]1CNCCO1 [Compound 185] | 1.01 to 10 | 10 to 100
Fc1cccc(Cc2cnc(N3CCN(c4ncnc(Nc5ccc6c(c5)CNCC6)n4)CC3)nc2)c1F [Compound 137] | 1.01 to 10 | 10 to 100
OCc1ccccc1Cc1cnc(N2CCN(c3ncnc(Nc4ccc5c(c4)CNCC5)n3)CC2)nc1 [Compound 109] | < 1 | < 10
O=S1(=O)Cc2ccc(Nc3ncnc(N4CCN(c5ncc(Cc6ccccc6)cn5)CC4)n3)cc2CN1 [Compound 192] | < 1 | < 10
C[C@H](O)CNc1ccc(Nc2ncnc(N3CCN(c4ncc(Cc5ccccc5)cn4)CC3)n2)cc1 [Compound 81] | < 1 | 10 to 100
Cc1nn(C[C@H](C)O)cc1Nc1ncnc(N2CCN(c3ncc(Sc4ccc(F)cc4)cn3)CC2)n1 [Compound 152] | < 1 | < 10
O[C@@H]1CCN(c2ccc(Nc3ncnc(N4CCN(c5ncc(Cc6ccccc6)cn5)CC4)n3)cc2)C1 [Compound 111] | 1.01 to 10 | 10 to 100
CC(O)c1ccc(Nc2ncnc(N3CCN(c4ncc([C@@](C)(N)c5ccc(F)cc5)cn4)CC3)n2)cc1 (stereo partly shown) [Compound 140] | < 1 | –
CNc1ncnc(N2CCN(c3ncc(Cc4ccccc4)c(N)n3)CC2)n1 [Compound 1] | > 100 | –
Cc1cc(Nc2ncnc(N3CCN(c4ncc(Cc5ccccc5)cn4)CC3)n2)no1 [Compound 11] | 10 to 100 | –
Clc1ncc(N2CCN(c3ncnc(Nc4ccc5c(c4)CNCC5)n3)CC2)nn1 [Compound 8] | 10 to 100 | –

More lines, now with the values ahead:

IC50 (D816V Kit) [nM] | IC50 [1] [nM] | Compound
< 1 | 10 to 100 | c1ccc(Cc2cnc(N3CCN(c4ncnc(Nc5cnn(C[C@H]6COCCO6)c5)n4)CC3)nc2)cc1 [Compound 133]
1.01 to 10 | 100 to 1000 | Fc1ccc(Nc2cnc(N3CCN(c4ncnc(Nc5cnn(C[C@@H]6CNCCO6)c5)n4)CC3)nc2)cc1 [Compound 200]
1.01 to 10 | 10 to 100 | c1ccc(Sc2cnc(N3CCN(c4ncnc(Nc5cnn(C[C@@H]6CNCCO6)c5)n4)CC3)nc2)cc1 [Compound 199]
10 to 100 | > 10000 | c1nc(Nc2cnn(CC3CNCCO3)c2)nc(N2CCN(c3ncc(C4CC4)cn3)CC2)n1 (stereo not shown) [Compound 19]
> 100 | – | C(#CC1CC1)c1cnc(N2CCN(c3ncnc(Nc4cnn(C[C@@H]5CNCCO5)c4)n3)CC2)nc1 [Compound 63, (S)-4-(4-(5-(cyclopropylethynyl)pyrimidin-2-yl)piperazin-1-yl)-N-(1-(morpholin-2-ylmethyl)-1H-pyrazol-4-yl)-1,3,5-triazin-2-amine]
10 to 100 | – | c1nc(Nc2cnn(C[C@@H]3CNCCO3)c2)nc(N2CCN(c3ncc(CCC4CC4)cn3)CC2)n1 [Compound 67]
10 to 100 | – | C[C@@H]1CN(c2ncnc(Nc3cnn(C[C@@H]4CNCCO4)c3)n2)CCN1c1ncc(Br)c(N)n1 [Compound 194]
1.01 to 10 | – | FC(F)(c1ccccc1)c1cnc(N2CCN(c3ncnc(Nc4cnn(C[C@@H]5CNCCO5)c4)n3)CC2)nc1 [Compound 254]
> 100 | – | Nc1nc(N2CCN(c3ncnc(NC4CC4)n3)CC2)ncc1Cc1ccccc1 [Compound 3]
10 to 100 | – | OC[C@H]1CN(c2ncnc(Nc3cnn(CC4CNCCO4)c3)n2)CCN1c1ncc(Cc2ccccc2)cn1 (stereo partly shown) [Compound 247]
1.01 to 10 | – | C[C@@](O)(c1ccc(F)cc1)c1cnc(N2CCN(c3ncnc(Nc4cnn(C[C@@H]5CNCCO5)c4)n3)CC2)nc1 (single isomer, unassigned) [Compound 270]
10 to 100 | – | Nc1nc(N2CCN(c3ncnc(Nc4cnn(CC5CN(C=O)CCO5)c4)n3)CC2)ncc1Cl (stereo not shown) [Compound 90]
10 to 100 | – | Cc1c(Nc2ncnc(N3CCN(c4ncc(Br)cn4)CC3)n2)cnn1C[C@@H]1CNCCO1 [Compound 142]

Source: US9334263B2, “Compositions useful for treating disorders related to kit” (BLUEPRINT MEDICINES CORPORATION, priority 2013, dated 2016)
